Test system: blood cells
Assay: Lysis of blood cells by the lysing agent
Type: cell-based
Details: in lysing buffer
Text: Currently available methods employ saponin to lyse blood cells for isolating bacteria from positive blood cultures. […] It is probable that this identification failure is due to the blood cells not being completely lysed and/or a high content of blood debris. […] In some embodiments, SDA is very water soluble. An advantage of using SDA as the lysing agent for isolating bacteria from positive blood culture is that the MALDI score for challenging species such as Staphylococcus epidermidis can be higher than the cutoff value, leading to correct species identification. Moreover, processing times using SDA versus saponin can be nearly identical.
FIG. 1 depicts exemplary data related to MALDI scores for Staphylococcus epidermidis isolated from positive blood cultures using different lysing agents, namely saponin (SAP), Nonoxynol-9 (Somatic Cell Digestion Agent (SDA)), and a combination thereof. The concentration of each lysing agent was used at 0.52% (w/w). The score for acceptance of identification is greater than or equal to 1.8 for the Sepsityper database and 2.0 for the standard database. […] SDA is generally used as a spermicide by interacting with the lipids in the membranes of the acrosome and the midpiece of the sperm.

**Q.** How did the blood cell lysis turn out when Nonoxynol-9 [SDA] was run?
**A.** The blood cell lysis was “lyse blood cells very efficiently”.

Source: patent publication US20240026278A1, “BLOOD CELL LYSING AGENT FOR ISOLATING BACTERIA FROM BLOOD CULTURE” (Becton, Dickinson and Company, priority 2020, published 2024)
